Measured values as given in patent US20140323500A1, “NADPH OXIDASE 4 INHIBITORS AND USE THEREOF” (GENKYOTEX SA, priority 2011, published 2014).

Tests used:
[1] = target: T1, human Nox2 (Homo sapiens, UniProt P04839); test: ROS production by membranes expressing human Nox2, cell-free Amplex Red assay; assay type: biochemical; conditions: cell-free membranes, Amplex Red; Cheng-Prusoff; average of at least three experiments in triplicate; read-out: Ki hNox2
T1 construct: host or cells: T-REx-CHO (hNOX2 T-REx-CHO), tetracycline-induced; membrane fraction
T1 sequence (P04839 2-570 limits assumed): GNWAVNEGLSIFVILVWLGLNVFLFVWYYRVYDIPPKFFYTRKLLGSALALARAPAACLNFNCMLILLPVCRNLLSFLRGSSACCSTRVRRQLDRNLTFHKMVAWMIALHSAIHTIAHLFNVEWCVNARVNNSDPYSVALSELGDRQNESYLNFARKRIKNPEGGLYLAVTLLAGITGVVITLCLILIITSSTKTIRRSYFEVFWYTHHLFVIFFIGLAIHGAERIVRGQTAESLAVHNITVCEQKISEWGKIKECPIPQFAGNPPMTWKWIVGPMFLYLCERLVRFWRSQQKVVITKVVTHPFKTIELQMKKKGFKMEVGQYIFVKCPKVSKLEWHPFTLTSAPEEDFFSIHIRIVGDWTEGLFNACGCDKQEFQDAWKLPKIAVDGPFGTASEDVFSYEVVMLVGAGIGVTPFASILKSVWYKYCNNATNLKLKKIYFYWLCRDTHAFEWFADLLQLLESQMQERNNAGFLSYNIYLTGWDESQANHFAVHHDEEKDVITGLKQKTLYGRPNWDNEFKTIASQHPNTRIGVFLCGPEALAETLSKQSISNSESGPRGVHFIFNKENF
T1 sequence (P13498 2-195 partner limits assumed): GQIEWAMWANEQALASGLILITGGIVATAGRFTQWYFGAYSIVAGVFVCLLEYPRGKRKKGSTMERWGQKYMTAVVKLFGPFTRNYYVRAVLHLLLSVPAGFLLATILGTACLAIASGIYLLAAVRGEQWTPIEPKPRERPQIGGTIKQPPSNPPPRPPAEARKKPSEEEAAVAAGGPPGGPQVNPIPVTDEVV
From the text: (§1) The Nox4 activity of Nox4 inhibitors according to the invention may be tested for their activity in the inhibition or reduction of formation of reactive oxygen species (ROS) from oxygen in cell free assays. In order to fully characterise Nox4 inhibitors, Nox subunit-specific cell-free, membrane-based systems have been developed and specific recombinant proteins have been added to membranes heterologously over-expressing their specific iso form. Nox enzymes produce superoxide (O2.−) as primary product, however due to the high instability and reactivity of this molecule which dismutates naturally into hydrogen peroxide (H2O2), therefore, read-out techniques involving probes that do measure H2O2 were used (e.g. using Amplex Red as a probe in order to facilitate consistent and accurate measurements). The activity of the compounds is tested in the following cell free assay using the techniques described here below:
Human Nox1 (NM_007052.4), human NOX2 (NM_000397), and human NOX5 (NM_0245052244) cDNAs were cloned into the pcDNA5/TO (Invitrogen). Human p22 (NM_000101.2) was cloned into pcDNA3.1/Zeo (+) (Invitrogen), and human NOXA1 (AY255769.1) and human NOXO1 (AB097667) were cloned into the bi-cistronic pVITRO1-neo-mcs plasmid (Invivogen).
Cells were transfected by using the FuGENE 6 method. Cells stably expressing functional human Nox1 (hNOX1 T-REx™-CHO) were obtained by co-transfecting T-REx™-CHO cells with human Nox1, human p22, human NOXA1 and human NOXO1. Cells stably expressing functional human Nox2 (hNOX2 T-REx™-CHO) were obtained by co-transfecting T-REx™-CHO cells with human nox2, human p22 and human cofactors. Cells stably expressing functional human Nox5 (hNOX5 T-REx™-CHO) were obtained by transfecting T-REx™-CHO cells with human Nox5. Co-transfected cells were selected with the appropriate antibiotics for 10 days. For the selection, hygromycin and G418 were used at 2 mg/ml and zeocin at 0.1 mg/ml. For the establishment of each stably transfected cell line, a pool of antibiotic-resistant cells was generated. Cells were cloned by limiting dilution. Several clones were established and investigated for ROS production upon tetracycline-induced hNox expression using a cellular AR assay. The expression of NOXes was done with tetracycline (1 μg/ml) during 24 h prior to the assay.
(§2) Human Nox1, Nox2, Nox4, and Nox5 expression were induced with Tetracycline (1 μg/ml) during 24 h prior to the membrane preparation Membranes from transfected cells overexpressing Nox1, Nox2, Nox4 or Nox5 were prepared as previously described in Palicz et al., 2001, J. Biol. Chem., 76, 3090-3097. After resuspension in sonication buffer (11% sucrose, 120 mM NaCl, 1 mM EGTA in PBS, pH 7.4 for Nox4- or NOX5-expressing cells) or in relax buffer (10 mM Pipes, 3 mM NaCl, 3.5 mM MgCl2, 0.1M KCl, pH 7.4), cells were broken by sonication and centrifuged (200 g, 10 min). The supernatant was layered onto a 17/40% (w/v) discontinuous sucrose gradient and centrifuged (150,000×g for 60 min). Membrane fractions were collected from the 17/40% interface and were stored at −80° C. Protein concentration was determined with the Bradford reagent.
(§3) Reactive Oxygen Species (ROS) production by membranes expressing either human Nox1, or human Nox2 or human Nox4 or human Nox5 or by xanthine/xanthine oxidase were measured using the Amplex Red (AR) method following a slightly modified version of the manufacturer's instruction manual (Invitrogen). Briefly, membranes or xanthine were incubated in PBS with Amplex Red, Horse Radish Peroxidase (HRP) and appropriated co-factors. ROS production was induced by addition of NADPH to NOX-expressing membrane or by addition of xanthine to xanthine oxidase. Non-specific signal was measured in the absence of membranes or in the absence of xanthine.
Antagonist activity of compounds was measured in the presence of increasing concentrations ranging from 1 nM to 100 μM. […]

[2] = target: T2, human Nox4 (Homo sapiens, UniProt Q9NPH5); test: ROS production by membranes expressing human Nox4, cell-free Amplex Red assay; assay type: biochemical; conditions: cell-free membranes, Amplex Red; Cheng-Prusoff; average of at least three experiments in triplicate; read-out: Ki hNox4
T2 construct: expressed in transfected cells; host or cells: T-REx-293 (hNOX4 T-REx-293), tetracycline-induced; membrane fraction
T2 sequence (Q9NPH5 1-578): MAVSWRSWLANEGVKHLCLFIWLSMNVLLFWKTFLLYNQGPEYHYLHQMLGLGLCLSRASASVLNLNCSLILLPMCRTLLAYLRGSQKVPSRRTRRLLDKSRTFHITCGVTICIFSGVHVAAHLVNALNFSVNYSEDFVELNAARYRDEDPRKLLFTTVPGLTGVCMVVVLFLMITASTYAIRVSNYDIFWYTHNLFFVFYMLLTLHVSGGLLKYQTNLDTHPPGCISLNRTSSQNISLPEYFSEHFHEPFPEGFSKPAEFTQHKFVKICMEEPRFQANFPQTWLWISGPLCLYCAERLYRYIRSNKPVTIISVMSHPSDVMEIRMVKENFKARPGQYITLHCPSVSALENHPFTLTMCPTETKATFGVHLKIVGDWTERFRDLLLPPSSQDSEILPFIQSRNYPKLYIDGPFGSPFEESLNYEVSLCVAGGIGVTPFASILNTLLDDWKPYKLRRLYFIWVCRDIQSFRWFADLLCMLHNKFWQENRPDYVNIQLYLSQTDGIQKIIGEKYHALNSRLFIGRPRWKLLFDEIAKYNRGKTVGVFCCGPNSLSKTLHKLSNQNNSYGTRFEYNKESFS
T2 sequence (P13498 2-195 partner limits assumed): T1 sequence (P13498 2-195 partner limits assumed)
From the text: as §1
Transfected T-REx™-CHO cells (R718-07) purchased from Invitrogen and T-REx™-293 cell line expressing hNOX4 (hNOX4 T-REx™-293) (Serrander et al., 2007, Biochem. J., 406, 105-114) were cultured in […]. Both media were supplemented with 10% FBS, 2 mM glutamine, penicillin (100 U/ml) and streptomycin (100 μg/ml). Selection pressure was maintained by continuous inclusion of blasticidin (5 μg/ml), and/or G418 (0.25 mg/ml), and/or Hygromycin (0.25 mg/ml) and/or zeocin (0.025 mg/ml).
as §2, §3
Antagonist activity of compounds was measured in the presence of increasing concentrations ranging from 1 nM to 100 μM. After an incubation of 20 min in a plate shaker and incubator (Titramax 1000, VWR) at 37° C. with weak agitation (300 rpm), ROS levels were measured for 10 min in a BMG Fluostar microplate reader with excitation and emission wavelengths of 544 nm and 590 nm respectively.
Data were analysed using Prism (GraphPad Software Inc., San Diego, Calif.). Ki values were calculated using the Cheng-Prusoff equation and represent the average of at least three individual experiments performed in triplicate (Table 1). Nox4 inhibition was compared to that measured for Simvastatin (Enzo Life Sciences, CAS Number 79902-63-9) using the method described in Example 1. Reactive Oxygen Species (ROS) production by membranes expressing human Nox4 was measured using the Amplex Red (AR).

Compound	Ki [1] [nM]	Ki [2] [nM]
COc1ccc(-c2c3c(=O)n(-c4ccccc4OC)[nH]c3cc(=O)n2Cc2ccn(C)n2)c(F)c1 [(22), 4-(2-fluoro-4-methoxyphenyl)-2-(2-methoxyphenyl)-5-[(1-methyl-1H-pyrazol-3-yl)methyl]-1H-pyrazolo[4,3-c]pyridine-3,6(2H,5H)-dione]	925	98
O=c1c2c(-c3ccc(Cl)cc3F)n(Cc3cccnc3)c(=O)cc2[nH]n1-c1ccccc1Cl [(11), 4-(4-chloro-2-fluorophenyl)-2-(2-chlorophenyl)-5-(pyridin-3-ylmethyl)-1H-pyrazolo[4,3-c]pyridine-3,6(2H,5H)-dione]	563	75
O=c1c2c(-c3cc(Cl)cc(Cl)c3)n(Cc3ccncc3)c(=O)cc2[nH]n1-c1ccccc1Cl [(37), 2-(2-chlorophenyl)-4-(3,5-dichlorophenyl)-5-(pyridin-4-ylmethyl)-1H-pyrazolo[4,3-c]pyridine-3,6(2H,5H)-dione]	950	128
O=c1c2c(-c3ccccc3F)n(Cc3ccccn3)c(=O)cc2[nH]n1-c1ccccc1Cl [(34), 2-(2-chlorophenyl)-4-(2-fluorophenyl)-5-(pyridin-2-ylmethyl)-1H-pyrazolo[4,3-c]pyridine-3,6(2H,5H)-dione]	640	119
O=c1c2c(-c3ccc(Cl)cc3)n(Cc3nccs3)c(=O)cc2[nH]n1-c1ccccc1Cl [(36), 2-(2-chlorophenyl)-4-(4-chlorophenyl)-5-(1,3-thiazol-2-ylmethyl)-1H-pyrazolo[4,3-c]pyridine-3,6(2H,5H)-dione]	1160	125
COc1ccccc1-n1[nH]c2cc(=O)n(Cc3cccnc3)c(-c3ccc(Cl)cc3F)c2c1=O [(8), 4-(4-chloro-2-fluorophenyl)-2-(2-methoxyphenyl)-5-(pyridin-3-ylmethyl)-1H-pyrazolo[4,3-c]pyridine-3,6(2H,5H)-dione]	750	73
CNc1cccc(-c2c3c(=O)n(-c4ccccc4Cl)[nH]c3cc(=O)n2C)c1 [(32), 2-(2-chlorophenyl)-5-methyl-4-[3-(methylamino)phenyl]-1H-pyrazolo[4,3-c]pyridine-3,6(2H,5H)-dione]	1830	114
COc1ccccc1-n1[nH]c2cc(=O)n(Cc3cnccn3)c(-c3ccc(Cl)cc3)c2c1=O [(3), 4-(4-chlorophenyl)-2-(2-methoxyphenyl)-5-(pyrazin-2-ylmethyl)-1H-pyrazolo[4,3-c]pyridine-3,6(2H,5H)-dione]	735	57
COc1cc(Cn2c(-c3ccc(Cl)cc3F)c3c(=O)n(-c4ccccc4Cl)[nH]c3cc2=O)ccn1 [(26), 4-(4-chloro-2-fluorophenyl)-2-(2-chlorophenyl)-5-[(2-methoxypyridin-4-yl)methyl]-1H-pyrazolo[4,3-c]pyridine-3,6(2H,5H)-dione]	565	105
O=c1c2c(-c3ccc(Cl)cc3F)n(Cc3ccncc3)c(=O)cc2[nH]n1-c1ccccc1Cl [(19), 4-(4-chloro-2-fluorophenyl)-2-(2-chlorophenyl)-5-(pyridin-4-ylmethyl)-1H-pyrazolo[4,3-c]pyridine-3,6(2H,5H)-dione]	640	91
COc1ccccc1-n1[nH]c2cc(=O)n(Cc3cccnc3)c(C)c2c1=O [(7), 2-(2-methoxyphenyl)-4-methyl-5-(pyridin-3-ylmethyl)-1H-pyrazolo[4,3-c]pyridine-3,6(2H,5H)-dione]	1170	72
CN(C)c1cccc(-c2c3c(=O)n(-c4ccccc4Cl)[nH]c3cc(=O)n2Cc2cccnc2)c1 [(39), 2-(2-chlorophenyl)-4-[3-(dimethylamino)phenyl]-5-(pyridin-3-ylmethyl)-1H-pyrazolo[4,3-c]pyridine-3,6(2H,5H)-dione]	1500	149
O=c1c2c(-c3cc(Cl)ccc3F)n(Cc3cccnc3)c(=O)cc2[nH]n1-c1ccccc1Cl [(9), 4-(5-chloro-2-fluorophenyl)-2-(2-chlorophenyl)-5-(pyridin-3-ylmethyl)-1H-pyrazolo[4,3-c]pyridine-3,6(2H,5H)-dione]	650	74
